Data on 3 molecules can be found in paper PMC9743092, “Membrane-Active Cyclic Amphiphilic Peptides: Broad-Spectrum Antibacterial Activity Alone and in Combination with Antibiotics” (Journal of Medicinal Chemistry, 2022).

Values after ≈ are worked out from the molar mass of the structure shown. Read-outs that look alike come from different tables or passages of the source. Where only a bound is given, the exact number is not on record here.

The subject of data set [1] is human red blood cells (hRBCs). Particulars: red cells of human, 2 h.
Procedure: The hemolytic activity of all the cyclic peptides was determined using human red blood cells (hRBC) purchased from BioIVT, USA. […] Peptide-induced hemolysis was tested in triplicate by mixing 75 μL of the peptide solution in PBS (two-fold serial dilution) with 75 μL of a 4% (v/v) hRBC suspension in phosphate-buffered saline. The plates were incubated for 2 h at 37 °C without agitation and centrifuged at 1000g for 10 min. Aliquots (100 μL) of the supernatant were transferred to 96-well plates, where hemoglobin release was measured spectrophotometrically at 567 nm. Percent hemolysis was calculated by the following formula: [drawing 1] where A represents the absorbance of the peptide sample at 567 nm and A0 and At represent zero percent and 100% hemolysis determined in phosphate-buffered saline and 1% Triton X-100, respectively.
Data set [2] has as its system S. aureus (1193193).
In data set [3] the test system is S. aureus (1195201).
The test system of data set [4] is S. aureus (ATCC 29213).
Data set [5] deals with E. coli (1191008).
Data set [6] has as its system E. coli (ATCC 25922).
Data set [7] concerns E. coli (ATCC BAA-2452).
In data set [8] the test system is K. pneumoniae (ATCC 700603).
Data set [9] concerns K. pneumoniae (1188718).
In data set [10] the test system is K. pneumoniae (ATCC BAA 1705).
Data set [11] relates to P. aeruginosa (1191191).
For data set [12], the system named is P. aeruginosa (1188712).
In data set [13] the test system is P. aeruginosa (ATCC 27853).
Data set [14] relates to Acinetobacter baumannii (NCTC 13304).
In data set [15] the test system is Acinetobacter baumannii-calcoaceticus species complex (1188767).
The test system of data set [16] is Acinetobacter baumannii-calcoaceticus species complex (1189854).
Data set [17] relates to K. pneumoniae (ATCC BAA-1705). Particulars: 24 h, ≥99.9% kill.
The subject of data set [18] is P. aeruginosa (ATCC 27883). The settings on record: 24 h, ≥99.9% kill.
In data set [19] the test system is E. coli (ATCC 25922). The settings on record: 24 h, ≥99.9% kill.
Data set [20] can be described thus: in vitro. Particulars: human, human plasma.
Procedure: For accurate quantification, we employed a mass spectrometer (Q-TOF LC/MS) with a high resolving power. To remove the background interference, the data were processed by using a narrower (±0.1 m/z) extracted ion chromatogram (EIC) window. The test peptide (100 μM) was incubated in human plasma at 37 °C in a water bath. […] Plasma proteins were precipitated by the addition of cold ethanol (200 μL) and incubated for 30 min at −20 °C. […] The samples were dissolved in water and analyzed on a Delta-Pak (Waters) C18 column (100 Å, 5 μm, 3.9 mm × 150 mm) at a flow rate of 0.3 mL/min using a linear gradient of aqueous acetonitrile in the presence of formic acid (FA; 0.1%, v/v) as an ion pair reagent. Peptides were detected by recording the absorbance at 220 nm and quantified by their peak areas of EIC. The percentage digestion of the test peptides was calculated relative to the peak areas at 0 min.
Data set [21] relates to S. aureus (1193193). The data set can be described thus: microbe, parasite or virus in culture. The settings on record: Staphylococcus aureus, read-out: MIC S. aureus (1193193).
For data set [22], the system named is S. aureus (ATCC 29213). The data set can be described thus: microbe, parasite or virus in culture. The settings on record: Staphylococcus aureus, ATCC29213, read-out: MIC S. aureus (ATCC 29213).
Data set [23] has as its system E. coli (1191008). The data set can be described thus: microbe, parasite or virus in culture. Particulars: Escherichia coli, read-out: MIC E. coli (1191008).
In data set [24] the test system is E. coli (ATCC 25922). The data set can be described thus: microbe, parasite or virus in culture. The settings on record: Escherichia coli, ATCC25922, read-out: MIC E. coli (ATCC 25922).
Data set [25] concerns K. pneumoniae (ATCC 700603). The experiment in a line: microbe, parasite or virus in culture. Particulars: Klebsiella pneumoniae, ATCC700603, read-out: MIC K. pneumoniae (ATCC 700603).
Data set [26] concerns K. pneumoniae (1188718). The experiment in a line: microbe, parasite or virus in culture. Particulars: Klebsiella pneumoniae, read-out: MIC K. pneumoniae (1188718).
In data set [27] the test system is P. aeruginosa (1188712). The data set can be described thus: microbe, parasite or virus in culture. Particulars: Pseudomonas aeruginosa, read-out: MIC P. aeruginosa (1188712).
Data set [28] relates to P. aeruginosa (ATCC 27853). The data set can be described thus: microbe, parasite or virus in culture. The settings on record: Pseudomonas aeruginosa, ATCC27853, read-out: MIC P. aeruginosa (ATCC 27853).
Data set [29] concerns Bacillus subtilis (ATCC-6633). The data set can be described thus: microbe, parasite or virus in culture. The settings on record: ATCC6633, Gram-positive. Type of data set: cell-based. On the procedure: (§1) Daptomycin and polymyxin B were selected as positive controls against Gram-positive and Gram-negative bacteria, respectively.
(§2) All experiments were conducted in triplicate.

For data set [30], the system named is E. faecalis (ATCC 29212). The data set can be described thus: microbe, parasite or virus in culture. The settings on record: Enterococcus faecalis, ATCC29212; Gram-positive. The class given is cell-based. On the procedure:
as §1, §2

Data set [31] relates to E. faecalis (ATCC 51575). The experiment in a line: microbe, parasite or virus in culture. Type of data set: cell-based. Particulars: Enterococcus faecalis, ATCC51575; Gram-positive; gentamicin-, streptomycin-, vancomycin-resistant. How it is done: as §1, §2
The subject of data set [32] is E. faecium (ATCC 27270). The experiment in a line: microbe, parasite or virus in culture. The class given is cell-based. Particulars: Enterococcus faecium, ATCC27270; Gram-positive. How it is done:
as §1, §2

Data set [33] relates to S. pneumonia (ATCC 49619). The experiment in a line: microbe, parasite or virus in culture. Type of data set: cell-based. The settings on record: Streptococcus pneumoniae, ATCC49619; Gram-positive. How it is done: as §1, §2
The test system of data set [34] is S. pneumonia (ATCC 51938). The experiment in a line: microbe, parasite or virus in culture. Type of data set: cell-based. Particulars: Streptococcus pneumoniae, ATCC51938; Gram-positive; penicillin-, clindamycin-, cotrimoxazole-, erythromycin-resistant. How it is done:
as §1, §2

The test system of data set [35] is P. aeruginosa (ATCC 27883). The experiment in a line: Synergistic checkerboard assay. The class given is cell-based. The settings on record: Pseudomonas aeruginosa, ATCC27883; checkerboard; read-out: MIC antibiotic alone.
Procedure: (§3) This study aimed to compare the influence of synergistic combinations on the antibacterial efficacy against the individual peptide or antibiotic. The comparison is represented by the fractional inhibitory concentration index (FICI) value, which classifies the combined impact of the two tested compounds. Selected antibiotics were tested as 11 dose points of two-fold serial dilutions across the assay plate in combination with seven points of two-fold serial dilution of the peptides down the assay plate. Two-fold serial dilutions for antibiotics and peptides were performed individually to determine the MIC value for each tested compound.
(§4) The concentrations of the peptide started from its respective MICs and were then subjected to two-fold serial dilutions (a total of 7 points). […] Antibiotics were tested as 11 points, two-fold serial dilutions across the assay plate (from 1 to 11 columns) in combination with a seven (A–G)-point and two-fold serial dilution of the peptides down the assay plate. […] In column 12 (A–G) down the assay plate, a two-fold serial dilution of the peptide alone was performed.
(§5) The following equation was applied to calculate the FICI: (A)/MICA + (B)/MICB = FICA + FICB = FICI, where (A) and (B) are the MIC of (antibiotic + [peptide]) in combination (in a single well) and MICA and MICB are the MIC of each compound individually. Based on the calculated FICI value, the interaction between combinations was categorized into four prospects synergy, partial synergy, additive or indifference, and antagonism. […] All experiments were performed in triplicate.
In data set [36] the test system is E. coli (ATCC 25922). The data set can be described thus: Synergistic checkerboard assay. The class given is cell-based. Particulars: Escherichia coli, ATCC25922; checkerboard; read-out: MIC antibiotic alone.
Procedure: as §3, §4, §5
Data set [37] concerns S. aureus (ATCC 29213), MRSA (ATCC BAA-1556), E. coli (ATCC 25922), E. coli (ATCC BAA-2452). The experiment in a line: Serial passage resistance development study. The class given is cell-based, S. aureus and E. coli. Particulars: 18 repeated passages.
Procedure: The data represent the experiments performed in triplicate.
The assays were performed in 96-well microtiter plates using 2-fold serial dilutions of all the test specimens. From an inoculated microtiter plate, an aliquot of the well with the highest concentration permitting growth was taken and diluted in fresh media to achieve the optimum bacterial load identified by comparing the turbidity with the 0.5 McFarland standard. The bacterial suspension was then further diluted and used for successive passage with a resulting final concentration of 5 × 10^5 CFU/mL. MICs were recorded, and the next inoculum was prepared from the well containing the highest concentration of the drug that allowed growth. Eighteen repeated passages were performed in an identical fashion to that described above.
Data set [38] deals with K. pneumoniae (ATCC BAA-1705). Particulars: antibiotic alone or physical mixture with peptide (1:1 w/w).
For data set [39], the system named is P. aeruginosa (ATCC 27883). The settings on record: antibiotic alone or physical mixture with peptide (1:1 w/w).
In data set [40] the test system is E. coli (ATCC 25922). The settings on record: antibiotic alone or physical mixture with peptide (1:1 w/w).
Data set [41] is described as follows: Calcein dye leakage assay. The settings on record: 50 μg/mL, 100 min.
Data set [42] in a line: Calcein dye leakage assay. The settings on record: 50 μg/mL, 100 min. This is another data set of the same source.
For data set [43], the system named is K. pneumoniae (ATCC BAA-1705). The experiment in a line: Synergistic checkerboard assay. Particulars: Klebsiella pneumoniae, ATCCBAA1705, read-out: MIC antibiotic alone.
Procedure: as §3, §4, §5
Data set [44] deals with MRSA (ATCC BAA-1556). The data set can be described thus: microbe, parasite or virus in culture. Particulars: Staphylococcus aureus, ATCCBAA1556|MRSA, 24 h, read-out: MBC MRSA (ATCC BAA-1556).

In turn, `N=C(N)NCCC[C@@H]1NC(=O)[C@H](CCCNC(=N)N)NC(=O)[C@H](CCCNC(=N)N)NC(=O)[C@H](Cc2c[nH]c3ccccc23)NC(=O)[C@H](Cc2c[nH]c3ccccc23)NC(=O)[C@H](Cc2c[nH]c3ccccc23)NC(=O)[C@H](Cc2c[nH]c3ccccc23)NC(=O)[C@H](CCCNC(=N)N)NC(=O)[C@H](CCCNC(=N)N)NC1=O` [5a, [R5W4]] yielded an HC50 in data set [1] of 340 µg/mL. Moreover, in data set [2], the “MIC S. aureus (1193193)” value stood at 4 µg/mL (≈ 2.62 µM). The “MIC S. aureus (1195201)” value in data set [3] was 4 µg/mL (≈ 2.62 µM). Besides, the “MIC S. aureus (ATCC 29213)” value in data set [4] was found to be 4 µg/mL (≈ 2.62 µM). Further, in [5], the “MIC E. coli (1191008)” value amounted to 16 µg/mL (≈ 10.5 µM). Besides, in data set [6], the “MIC E. coli (ATCC 25922)” value turned out to be 16 µg/mL (≈ 10.5 µM). In addition, in data set [7], the “MIC E. coli (ATCC BAA-2452)” value is 16 µg/mL (≈ 10.5 µM). Besides, the “MIC K. pneumoniae (ATCC 700603)” value in data set [8] was above 64 µg/mL. Further, the “MIC K. pneumoniae (1188718)” value in [9] was above 64 µg/mL. In addition, the “MIC K. pneumoniae (ATCC BAA 1705)” value in data set [10] was above 64 µg/mL. The “MIC P. aeruginosa (1191191)” value in data set [11] was 32 µg/mL (≈ 21 µM). Also, in data set [12], the “MIC P. aeruginosa (1188712)” value turned out to be 16 µg/mL (≈ 10.5 µM). In addition, in data set [13], the “MIC P. aeruginosa (ATCC 27853)” value worked out at 32 µg/mL (≈ 21 µM). Further, the “MIC Acinetobacter baumannii (NCTC 13304)” value in [14] was determined as 16 µg/mL (≈ 10.5 µM). For the same molecule, the “MIC Acinetobacter baumannii-calcoaceticus species complex (1188767)” value in data set [15] is 32 µg/mL (≈ 21 µM). Moreover, the “MIC Acinetobacter baumannii-calcoaceticus species complex (1189854)” value in data set [16] is 16 µg/mL (≈ 10.5 µM). Also, in data set [17], the “MBC K. pneumoniae (ATCC BAA-1705)” value is 64 µg/mL (≈ 41.9 µM). In addition, the “MBC P. aeruginosa (ATCC 27883)” value in [18] came to 32 µg/mL (≈ 21 µM). In addition, in data set [19], the “MBC E. coli (ATCC 25922)” value was 16 µg/mL (≈ 10.5 µM). In [20], the share remaining at 0.5 h, 100 μM is around 79% and the fraction remaining at 2 h, 100 μM is around 56%.
As for `CO/N=C(\C(=O)N[C@@H]1C(=O)N2C(C(=O)[O-])=C(C[N+]3(C)CCCC3)CS[C@H]12)c1csc(N)n1` [cefepime], the MIC in data set [21] worked out at 16 µg/mL (≈ 33.3 µM); in data set [22], 2 µg/mL (≈ 4.16 µM); in [23] it was 8 µg/mL (≈ 16.6 µM); in data set [24], 0.06 µg/mL (≈ 0.125 µM); in data set [25], 1 µg/mL (≈ 2.08 µM); in [26], 8 µg/mL (≈ 16.6 µM). The MIC in [27] came out at 8 µg/mL (≈ 16.6 µM); in [28], 1 µg/mL (≈ 2.08 µM).
`CCCCCCCCCC(=O)N[C@@H](Cc1c[nH]c2ccccc12)C(=O)N[C@H](CC(N)=O)C(=O)N[C@@H](CC(=O)O)C(=O)N[C@@H]1C(=O)NCC(=O)N[C@@H](CCCN)C(=O)N[C@@H](CC(=O)O)C(=O)N[C@H](C)C(=O)N[C@@H](CC(=O)O)C(=O)NCC(=O)N[C@H](CO)C(=O)N[C@@H]([C@H](C)CC(=O)O)C(=O)N[C@@H](CC(=O)c2ccccc2N)C(=O)O[C@@H]1C` [daptomycin]: the MIC in data set [29] is 0.5 µg/mL (≈ 0.309 µM); in data set [30], 16 µg/mL (≈ 9.87 µM); in [31], 4 µg/mL (≈ 2.47 µM); in data set [32], 4 µg/mL (≈ 2.47 µM); in data set [33], 4 µg/mL (≈ 2.47 µM); in data set [34], 8 µg/mL (≈ 4.94 µM). The values for the MIC in data set [35], in data set [36] and in data set [43] were 512 µg/mL, above 128 µg/mL and 512 µg/mL, respectively. Further, the “change in MIC on resistance induction” value in [37] is listed as “negligible changes in the MICs”. Also, the “MIC K. pneumoniae (ATCC BAA-1705)” value in data set [38] is reported as 512 µg/mL (≈ 316 µM). Moreover, the “MIC P. aeruginosa (ATCC 27883)” value in [39] is 512 µg/mL (≈ 316 µM). In addition, the “MIC E. coli (ATCC 25922)” value in data set [40] is recorded as 256 µg/mL (≈ 158 µM). Also, the calcein dye release in data set [41] was 42%. Besides, in [42], the calcein dye leakage result is recorded as “around 7%”. In addition, the MBC in data set [44] came to 8 µg/mL (≈ 4.94 µM).

As usually defined, the HC50 is the concentration that lyses half of the red blood cells. The low end stands for stronger haemolysis, the high end for weaker haemolysis. As a reminder, the share remaining is the share of the starting amount still present when the sample was taken. Read a high share remaining as less turnover.
